This series is described as follows: Urinary recovery after oral administration to mice. Format: in vivo, mice (ICR, male). Particulars: urine, 1 mg/mouse in 0.5% CMC, 0-6 hours, 5 mice, mean ± S.E., free carboxylic acid by bioassay with Kl. pneumoniae ATCC 10031. The procedure: A test compound was orally administered to mice (ICR, male, 4 weeks old) in an amount of 1 mg/mouse, and a urinary recovery was determined.
In the test compounds (No. 1 and No. 2), the ester group is easily removed in a living body, whereby the compounds are converted into the corresponding free carboxylic acids. Therefore, the urinary recovery was determined by quantitatively measuring the free carboxylic acids excreted into urine.
Administration method: A test compound suspended in 0.5% CMC (Carboxy Methyl Cellulose) was orally administered.
Quantitative measurement method: The amount of free carboxylic acid was measured by bioassay (a paper-disc method) using the test organism mentioned in Table 2.

Take `Cc1ccc(=O)n(CC2=C(C(=O)O)N3C(=O)C(NC(=O)/C(=N\OCC(=O)O)c4csc(N)n4)C3SC2)n1` (stereo not shown) [Compound 3]: the dose excreted at 6 h was 10.4 ± 1.1%.

These data come from patent publication US4717767A, “7-amino-3-(pyrazinylmethyl) or (pyridazinylmethyl)-cephalosporins” (Toyama Chemical Co., Ltd., priority 1982, dated 1988).
